Paper PMC3047706 (Chemmedchem, 2010)
Structures can show the parent of a compound that is named as a salt.

How the values were obtained:
Format in all cases: biochemical
T. cruzi TryR [1] = target: T1, T. cruzi TryR (Trypanosoma cruzi, UniProt P28593); test: DTNB-coupled TryR microplate assay, […] nm
human GR = target: T2, human GR (Homo sapiens, UniProt P00390); test: DTNB-coupled GR microplate assay, single concentration in duplicate; conditions: read-out: % inhibition at 25 μM
T2 sequence (P00390 44-522): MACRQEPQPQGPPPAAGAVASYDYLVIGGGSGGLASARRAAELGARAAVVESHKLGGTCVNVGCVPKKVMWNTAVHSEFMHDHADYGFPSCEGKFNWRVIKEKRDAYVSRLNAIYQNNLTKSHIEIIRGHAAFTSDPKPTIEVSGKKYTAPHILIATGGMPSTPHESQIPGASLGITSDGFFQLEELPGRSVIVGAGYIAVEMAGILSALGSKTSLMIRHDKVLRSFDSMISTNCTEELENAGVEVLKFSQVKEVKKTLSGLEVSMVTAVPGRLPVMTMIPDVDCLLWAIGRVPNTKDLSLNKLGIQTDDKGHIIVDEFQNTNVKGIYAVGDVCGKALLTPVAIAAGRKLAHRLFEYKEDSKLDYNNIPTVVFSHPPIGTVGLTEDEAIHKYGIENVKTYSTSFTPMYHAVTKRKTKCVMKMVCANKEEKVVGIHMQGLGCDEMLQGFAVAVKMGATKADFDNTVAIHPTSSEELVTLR

T. cruzi TryR [2] = target: T1, T. cruzi TryR; test: DTNB-coupled TryR assay, global fit of mode of inhibition

T1 sequence (P28593 whole entry): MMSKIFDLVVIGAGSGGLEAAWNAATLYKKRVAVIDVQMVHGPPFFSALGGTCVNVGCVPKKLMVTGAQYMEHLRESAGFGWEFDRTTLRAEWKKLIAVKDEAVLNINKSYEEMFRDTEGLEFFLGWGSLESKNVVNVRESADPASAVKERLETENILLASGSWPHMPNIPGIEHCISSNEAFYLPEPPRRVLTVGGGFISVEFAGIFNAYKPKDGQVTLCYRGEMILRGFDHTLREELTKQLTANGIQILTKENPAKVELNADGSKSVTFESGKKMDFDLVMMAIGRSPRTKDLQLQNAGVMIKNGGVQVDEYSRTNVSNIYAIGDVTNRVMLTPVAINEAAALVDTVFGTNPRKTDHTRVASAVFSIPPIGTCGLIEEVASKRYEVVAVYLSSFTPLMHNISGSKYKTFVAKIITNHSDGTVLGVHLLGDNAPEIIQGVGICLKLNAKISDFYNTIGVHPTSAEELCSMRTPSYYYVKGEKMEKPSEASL

Row | IC50 (T. cruzi TryR [1]) | Ki (T. cruzi TryR [2]) | SMILES | inhibition at 25 µM (human GR)
1 | > 200 µM | – | CC(=O)N[C@@H]1C[C@@H](c2ccc(Cl)c(Cl)c2)c2ccccc21 (relative stereo) [8xiv, Trans-N-[3-(3,4-dichlorophenyl)indan-1-yl]acetamide] | –
2 | 2.23 ± 0.66 µM | – | COc1ccc2c(c1)[C@H](NCCC(C)C)C[C@H]2c1ccc(Cl)c(Cl)c1 (relative stereo) [8xvi, Trans-[3-(3,4-dichlorophenyl)-6-methoxyindan-1-yl]-(3-methylbutyl)amine] | –
3 | 4.14 ± 0.41 µM | – | COc1ccc(CN[C@@H]2C[C@@H](c3ccc(Cl)c(Cl)c3)c3ccccc32)cc1 (relative stereo) [8xi, Trans-[3-(3,4-dichlorophenyl)indan-1-yl]-(4-methoxybenzyl)amine] | –
4 | 3.15 ± 0.23 µM | – | COc1ccc2c(c1)[C@H](NCCC(C)C)C[C@H]2c1ccc(Br)c(Br)c1 (relative stereo) [8xvii, Trans-[3-(3,4-dibromophenyl)-6-methoxyindan-1-yl]-(3-methylbutyl)amine] | –
5 | 13 ± 1.6 µM | – | Cc1ccc(CN[C@@H]2C[C@@H](c3ccc(Cl)c(Cl)c3)c3ccccc32)cc1 (relative stereo) [8x, Trans-[3-(3,4-dichlorophenyl)indan-1-yl]-(4-methylbenzyl)amine] | –
6 | 45.9 ± 4.2 µM | – | Clc1ccc(CN[C@@H]2C[C@@H](c3ccc(Cl)c(Cl)c3)c3ccccc32)cc1Cl (relative stereo) [8ix, Trans-[3-(3,4-dichlorophenyl)indan-1-yl]-(3,4-dichlorobenzyl)amine] | –
7 | 32.9 ± 4.3 µM | – | COc1ccc2c(c1)[C@H](NCCC(C)C)C[C@H]2c1ccc(C)cc1 (relative stereo) [8xix, Trans-[3-(4-methylphenyl)-6-methoxyindan-1-yl]-(3-methylbutyl)amine] | –
8 | 3.07 ± 0.45 µM | – | COc1ccc2c(c1)[C@@H](NCc1ccccc1)C[C@@H]2c1ccc(Cl)c(Cl)c1 (relative stereo) [8xxi, Trans-benzyl-[3-(3,4-dichlorophenyl)-6-methoxyindan-1-yl]amine] | –
9 | 125 ± 17 µM | – | COc1cccc(C2CC(NCCC(C)C)c3cc(OC)ccc32)c1 (centres unmarked) [8xx] | –
10 | 173 ± 56 µM | – | Clc1ccc([C@@H]2C[C@@H](N3CCOCC3)c3ccccc32)cc1Cl (relative stereo) [8vi, Trans-4-[3-(3,4-dichlorophenyl)indan-1-yl]morpholine] | –
11 | 15.8 ± 1.6 µM | – | COc1ccc2c(c1)[C@H](NCCC(C)C)C[C@H]2c1ccc(Cl)cc1 (relative stereo) [8xviii, Trans-[3-(4-chlorophenyl)-6-methoxyindan-1-yl]-(3-methylbutyl)amine] | –
12 | – | – | CN[C@@H]1C[C@@H](c2ccc(Cl)c(Cl)c2)c2ccccc21 [compound 3, indatraline] | < 12%
13 | 8.04 ± 0.91 µM | – | Clc1ccc(C2CC(NCc3ccccc3)c3ccccc32)cc1Cl (centres unmarked) [8vii] | –
14 | > 200 µM | – | Cc1ccc(S(=O)(=O)N[C@@H]2C[C@@H](c3ccc(Cl)c(Cl)c3)c3ccccc32)cc1 (relative stereo) [8xv, Trans-N-[3-(3,4-dichlorophenyl)indan-1-yl]-4-methylbenzenesulfonamide] | –
15 | 4.05 ± 0.39 µM | 3.5 ± 0.4 µM | CC(C)CCN[C@@H]1C[C@@H](c2ccc(Cl)c(Cl)c2)c2ccccc21 (relative stereo) [8ii, Trans-[3-(3,4-dichlorophenyl)indan-1-yl]-(3-methylbutyl)amine hydrochloride] | –
16 | 7.38 ± 1.21 µM | – | CN(C)c1ccc(CN[C@@H]2C[C@@H](c3ccc(Cl)c(Cl)c3)c3ccccc32)cc1 (relative stereo) [8xii, Trans-[3-(3,4-dichlorophenyl)indan-1-yl]-(4-dimethylaminobenzyl)amine] | –
